The subject of data set [1] is Lewis Lung carcinoma (LLC). The data set is described as follows: spontaneous LLC lung metastasis model after primary tumor resection (survival). It counts as in vivo, mice. Particulars: for mimicked the action of ketorolac in prolonging survival after primary LLC tumor resection: FR122047 20, TFAP 30, SC-560 30, indomethacin 3 mg/kg i.p., celecoxib 60 mg/kg oral gavage, FIG. 1B. The source says:
Doses were selected based on previous publications by the present inventors and others, and/or by analogy to the human dose.

The conditions of data set [2]: used alone; single subcutaneous injection before the resection; cited from earlier work.
Data set [3] concerns LLC. The data set is described as follows: second tumor challenge 200 days after LLC tumor resection. It counts as in vivo, immunocompetent mice (C57BL6). Conditions: 200 days post LLC tumor resection, ketorolac preoperatively; FIG. 4A. The procedure: To determine whether perioperative COX-1 inhibition produces a durable immune response to the cancer, immunocompetent mice (C57BL6) at 200 days after undergoing LLC tumor resection during which they were administered ketorolac preoperatively, were given a second tumor challenge with the same tumor types (LLC).

The next data set relates to LLC tumor cells. The data set is described as follows: Hematoxylin & Eosin analysis of lungs after LLC tumor resection. It counts as in vivo, mice. Particulars: 240 days post-surgery; i.p. 7.5 mg/kg 2 hours prior to surgery; abundant LLC tumor cells at Day 0. The source says: Representative micrographs of 4 different mice per group (total of 10 mice/group).
The next data set concerns B16F10. The data set is described as follows: laparotomy-induced tumor dormancy escape in Rag1 KO mice. The class given is in vivo. Conditions: B16F10, 1×10^3; FIG. 3C.
For a further data set, the system named is E0771 breast cancer. The data set is described as follows: spontaneous E0771 breast cancer metastasis model after primary tumor resection. It counts as in vivo. Conditions: pre-operative; FIG. 1D.
A further data set concerns human lung tumor (H460). The data set is described as follows: human lung tumor primary tumor resection in SCID mice. Conditions: FIG. 3B. The class given is in vivo.
For data set [4] the following is noted: human, in vivo; cited from earlier work.
For the next data set, the system named is T241 fibrosarcoma. The data set is described as follows: liver biopsy-stimulated lung metastasis post primary tumor resection. The class given is in vivo. Conditions: pre-surgical administration; FIG. 2D. The source says:
(D) Liver biopsy stimulated lung metastasis post primary tumor resection (T241 fibrosarcoma).
In addition, liver biopsy alone stimulated lung metastasis post primary tumor resection in a T241 fibrosarcoma model (O'Reilly et al., Cell. 1994 Oct. 21; 79(2):315-28 and Panigraphy et al., J Clin Invest. 2012 January; 122(1):178-91).

Data set [5] concerns LLC. The data set is described as follows: LLC tumor resection in nude athymic mice. It counts as in vivo, nude athymic C57BL/6 mice. Particulars: administered prior to LLC tumor resection; FIG. 3A. As for the experimental part:
To determine whether the effects of Ketorolac were due to actions on the immune system, the effects of ketorolac administered prior to LLC tumor resection was determined in nude athymic C57BL/6 mice, SCID mice, and Rag1 KO Mice.

Another data set relates to MMTV-PyMT breast tumor. The data set is described as follows: surgery-stimulated (laparotomy) spontaneous tumor model, genetically engineered murine breast tumor model. The class given is in vivo. Conditions: FIG. 1C.
The test system of data set [6] is B16F10 melanoma. The data set is described as follows: laparotomy-stimulated primary tumor dormancy escape, B16F10. It counts as in vivo. Particulars: pre-surgical administration; 1×10^3 cells; FIG. 2A. The source says:
(§1) (A-C) Surgery (i.e. laparotomy) stimulated primary tumor dormancy escape in a B16F10 melanoma (1×10^3 cells), Lewis lung carcinoma (LLC 1×10^4 cells), and EL4 lymphoma (1×10^4 cells). Images show representative tumors on Day 35 post-injection; Scale bar, 1 cm.
(§2) Surgery (i.e., laparotomy, which is a surgical procedure involving a large incision through the abdominal wall to gain access into the abdominal cavity, also known as a celiotomy) stimulated primary tumor dormancy escape in a B16F10 melanoma (1×10^3 cells, see Kalpainen et al., PLoS One. 2007 Feb. 28; 2(2):e260 and Panigraphy et al., J Clin Invest. 2012 January; 122(1):178-91; FIG. 2A), Lewis lung carcinoma (LLC 1×10^4 cells, FIG. 2B), and EL4 lymphoma (1×10^4 cells, FIG. 2C).

A further data set deals with prostate cancer. Particulars: after radical prostatectomy for prostate cancer; retrospective; cited from earlier work.
The next data set has as its system EL4 lymphoma. The data set is described as follows: laparotomy-stimulated primary tumor dormancy escape, EL4. The class given is in vivo. Conditions: pre-surgical administration; 1×10^4 cells; FIG. 2C.
Excerpt: as §1, §2

The test system of data set [7] is B16F10 melanoma. The data set is described as follows: third tumor challenge with a different tumor-type. It counts as in vivo, immunocompetent mice (C57BL6). Conditions: same mice, FIG. 4A.
For data set [8], the system named is LLC. The data set is described as follows: LLC tumor resection in WT and COX-2 KO mice (metastasis). Conditions: administered prior to surgery, FIG. 4B. It counts as in vivo.
In data set [9] the test system is Lewis lung carcinoma (LLC). The data set is described as follows: laparotomy-stimulated primary tumor dormancy escape, LLC. Particulars: pre-surgical administration; 1×10^4 cells; FIG. 2B. The class given is in vivo.
Excerpt: as §1, §2

The conditions of data set [10]: in vivo; cited from earlier work.

Each structure is given as a SMILES string.

As to `COc1ccc(-c2nc(C(=O)N3CCN(C)CC3)sc2-c2ccc(OC)cc2)cc1.Cl` [FR122047, 1-[[4,5-bis(4-Methoxyphenyl)-2-thiazolyl]carbonyl]-4-methylpiperazine hydrochloride], the “mimicked the action of ketorolac in prolonging survival after primary LLC tumor resection” value in data set [1] is on record as “mimicked the action of ketorolac”.

For `Nc1ccc(NC(=O)c2ccc(C(F)(F)F)cc2)nc1` [TFAP, N-(5-amino-2-pyridinyl)-4-trifluoromethylbenzamide], in [1], the “mimicked the action of ketorolac in prolonging survival after primary LLC tumor resection” value was “mimicked the action of ketorolac”.

Take `CCc1cccc2c3c([nH]c12)C(CC)(CC(=O)O)OCC3` (centres unmarked) [etodolac]: in data set [2], the spontaneous postoperative metastasis result is “did not prevent spontaneous postoperative metastasis”.

Take `O=C(c1ccccc1)c1ccc2n1CCC2C(=O)O` (centres unmarked) [ketorolac, ketorolac tromethamine]: the “response to second tumor challenge (LLC)” value in the data set with LLC [3] is listed as “resisted a second tumor challenge”. In addition, the “tumor cells in lungs (Hematoxylin & Eosin)” value in the data set with LLC tumor cells is on record as “no tumor cells were detectable”. In the data set on B16F10, the “laparotomy-induced tumor dormancy escape” value is “did not inhibit laparotomy-induced tumor dormancy escape”. Further, the “survival after primary tumor resection” value with E0771 breast cancer is recorded as “prolonged survival”; in [1] (pre-operative (2 hrs prior to surgery), ketorolac 7.5 mg/kg I.P., celecoxib 30 mg/kg bid po, FIG. 1A) it was “prolonged survival”. In the data set on human lung tumor (H460), the “metastases after primary tumor resection” value was “did not inhibit metastases”. The major side effect entry in [4] was “increased bleeding time”. The biopsy-stimulated lung metastasis entry in the data set on T241 fibrosarcoma is “inhibited this biopsy-stimulated lung metastasis”. The anti-metastatic activity entry with LLC [5] is listed as “did not have anti-metastatic activity”. For the same compound, the survival entry in the data set on MMTV-PyMT breast tumor is “prolonged survival”. In addition, the “surgery-induced tumor dormancy escape” value (with B16F10 melanoma [6]; with EL4 lymphoma; in data set [9]) was “inhibited surgery-induced tumor dormancy escape” in each case. In addition, the “benefit of perioperative use” value in the data set with prostate cancer is recorded as “no benefit”. The “tumor micrometastasis by immunohistochemistry” value in [1] (180 to 200 days, micrometastasis present on day of tumor resection) is on record as “no evidence of tumor micrometastasis”. In addition, the “"cured" (long term survival)” value in [1] (pre-operative, syngeneic LLC lung cancer model) is listed as “approximately 50 % of mice”. The “response to third tumor challenge (B16F10 melanoma)” value with B16F10 melanoma [7] is reported as “exhibited rapid tumor growth”. For the same compound, the tumor metastasis result in the data set on LLC [8] (COX-2 knockout (KO) mice) and in the data set on LLC [8] (WT mice) was “prevented tumor metastasis” throughout.

For `CN1CC[C@]23c4c5ccc(O)c4O[C@H]2[C@@H](O)C=C[C@H]3[C@H]1C5` [morphine], the “effect on angiogenesis, tumor cell proliferation, primary tumor growth and metastasis” value in data set [10] is “stimulates angiogenesis, tumor cell proliferation, primary tumor growth and metastasis”.
